Assay results published in patent publication US20240409534A1, “CRYSTAL FORM OF METHYLPYRAZOLE-SUBSTITUTED PYRIDOIMIDAZOLE COMPOUND AND PREPARATION METHOD THEREFOR” (priority 2021, published 2024).
Read-outs that look alike come from different tables or passages of the source.

How the values were obtained:
[1] = system: NCI-H1581 cells with high expression of FGFR1; assay: Cell proliferation inhibition, CellTiter-Glo, NCI-H1581; format: cell-based; conditions: Homo sapiens, 72 h, NCI-H1581, cultured for 3 days
Excerpt: (§1) The compounds of the present disclosure can target and inhibit FGFR and VEGFR pathways, and inhibit tumor cell growth by inhibiting VEGF/VEGFR and FGF/FGFR signaling pathways. In this experiment, human non-small cell lung cancer cells NCI-H1581 with high expression of FGFR1, gastric cancer cells SNU-16 with high expression of FGFR2, and human bladder cancer cells RT112/84 with high expression of FGFR3 were selected. In this experiment, the inhibitory effect of compounds on cell proliferation was investigated by detecting the effect of the compounds of the present disclosure on the cell viability in vitro in the tumor cell lines NCI-H1581, SNU-16 and RT-112/84.
(§2) Regular passage, and cells in logarithmic growth phase were taken for plating.
(§3) • (1) Cells were stained with trypan blue and viable cells were counted. • (2) The cell concentration was adjusted to an appropriate concentration.
(§4) • (3) 90 μL of cell suspension per well was added to a culture plate, and cell-free culture solution was added to the blank control well. • (4) The plate was cultured overnight in a 37° C., 5% CO2 incubator with 100% relative humidity.
(§5) • (1) Preparation of 10× compound working solution: 78 μL of cell culture medium was added to a V-bottom 96-well plate, and 2 μL of compound was pipetted from a 400× compound storage plate and added to the cell culture medium of the 96-well plate. […]

[2] = system: bladder cancer cells RT112/84 with high expression of FGFR3; assay: Cell proliferation inhibition, CellTiter-Glo, RT-112/84; format: cell-based; conditions: Homo sapiens, RT112/84, 72 h, RT-112/84, cultured for 3 days
Excerpt: as §1, §2, §3, §4, §5

[3] = Pharmacokinetic evaluation in SD rats, intravenous and intragastric (Experimental Embodiment 3); format: in vivo; conditions: rat, plasma; for bioavailability: intragastric administration, read-out: drug bioavailability; for Cmax: read-out: peak concentration (Cmax); for Tmax: read-out: peak time (Tmax); for Vd: read-out: apparent volume of distribution at steady state (Vdss); for half-life: read-out: elimination half-life (T1/2) (converted); for clearance: read-out: plasma clearance (Cl)
[4] = system: Renca subcutaneous xenograft tumor; assay: In vivo antitumor activity, Renca subcutaneous xenograft tumor model; design: species or system Balb/c mice
Protocol: Female Balb/c mice (6 to 8 weeks old)
Mouse renal carcinoma Renca cells (ATCC-CRL-2947) were adherent cultured in vitro under the conditions of RPMI 1640 Medium with 10% fetal bovine serum, 0.1 mM non-essential amino acids, 1 mM sodium pyruvate, 2 mM glutamine, 100 U/mL penicillin and 100 µg/mL streptomycin, and cultured in a 37° C., 5% CO2 incubator. Routine passage was performed twice a week. When the cell saturation density was 80% to 90% and the number of cells reached the required level, the cells were collected, counted, and inoculated.
0.1 mL (1×10^5) Renca cells were subcutaneously inoculated on the dorsal side of the right upper limb of each mouse, and grouping and administration were initiated when the average tumor volume reached approximately 50 to 80 mm^3.
Tumor diameters were measured twice a week with vernier calipers. […]
The antitumor efficacy of compounds was evaluated by TGI (%) or relative tumor proliferation rate T/C (%). […] Relative tumor volume (RTV) was calculated according to the results of tumor measurement, and the formula was RTV=Vt/V0, where V0 was the tumor volume measured at the time of grouping and administration (i.e. D0), Vt was the tumor volume of the corresponding mouse in one measurement, and the TRTV and CRTV data were collected on the same day. […]

[5] = po, female SD rats, single intragastric administration, 10 mg/kg
[6] = po, female SD rats, single intragastric administration, 30 mg/kg
[7] = po, female SD rats, single intragastric administration, 100 mg/kg
[8] = po, male SD rats, single intragastric administration, 10 mg/kg
[9] = po, male SD rats, single intragastric administration, 30 mg/kg
[10] = po, male SD rats, single intragastric administration, 100 mg/kg
[11] = female SD rats, single intravenous injection of 1 mg/kg
[12] = male SD rats, single intravenous injection of 1 mg/kg

SMILES: CS(=O)(=O)O.Cn1cc(-c2ccn3c(-c4cc(NS(C)(=O)=O)nc(-c5ccc(F)cc5F)c4)cnc3c2)cn1
- IC50 [1]: 117 nM
- IC50 [2]: 167 nM
- bioavailability ([3]; po, female SD rats, 10 mg/kg): 50.3%
- AUC(0-t) [3, 5]: 24.8 µM·h
- Cmax [3, 5]: 9.17 µM
- Tmax [3, 5]: 40 min
- AUC(0-t) [3, 6]: 65.6 µM·h
- Cmax [3, 6]: 24.5 µM
- Tmax [3, 6]: 60 min
- AUC(0-t) [3, 7]: 125 µM·h
- Cmax [3, 7]: 27.4 µM
- Tmax [3, 7]: 30 min
- bioavailability ([3]; po, male SD rats, 10 mg/kg): 18%
- AUC(0-t) [3, 8]: 7.15 µM·h
- Cmax [3, 8]: 3.78 µM
- Tmax [3, 8]: 30 min
- AUC(0-t) [3, 9]: 38.2 µM·h
- Cmax [3, 9]: 16.7 µM
- Tmax [3, 9]: 60 min
- AUC(0-t) [3, 10]: 113 µM·h
- Cmax [3, 10]: 19.9 µM
- Tmax [3, 10]: 50 min
- AUC(0-t) [3, 11]: 4.93 µM·h
- Vd [3, 11]: 0.366 L/kg
- half-life [3, 11]: 45.9 min
- clearance [3, 11]: 7.03 mL/min/kg
- AUC(0-t) [3, 12]: 3.98 µM·h
- Vd [3, 12]: 0.419 L/kg
- half-life [3, 12]: 40.5 min
- clearance [3, 12]: 8.78 mL/min/kg
- effect on tumor growth versus solvent control group ([4]; Renca model, 100 mg/kg, p=0.031): significant inhibitory effect on tumor growth
- TGI % (last administration on day 19) ([4]; Renca xenograft tumor model, 100 mg/kg QD, female Balb/c mice): 72%
